“Also recorded” adds a separate entry of the source.
Assays:
[1] = parameters: species or system rats and monkeys; details: rat, monkey, in vivo
Source text: Such variability in absorption of BH4 was also shown in a study described herein on the effect of food on the bioavailability of BH4 in healthy humans.

[2] = safety and tolerability of single oral doses of BH4 in healthy subjects; assay type: in vivo, human
Description: Safety was evaluated for all subjects who take at least one dose of BH4.
Safety was evaluated by recording the incidence of adverse events, changes in 12-lead ECG parameters, vital signs and physical examination results, and changes in baseline in laboratory test values.
In this study, an adverse event (AE) was defined as any untoward medical occurrence in a subject or clinical investigation subject administered BH4, at any dose, whether or not it has a causal relationship with the event. An AE can therefore be any unfavorable and unintended sign (including an abnormal laboratory finding), symptom, or disease temporally associated with the use of BH4, whether or not related to BH4. This definition included intercurrent illnesses or injuries and exacerbation (increase in frequency, severity or specificity) of pre-existing conditions.
A serious adverse event (SAE) was defined as any AE that has at least one of the following outcomes: […]

[3] = physchem; assay type: physicochemical; details: for Estimated t1/2 Based on t1/2 Obtained at pH 3 (Min) / half-life: buffer
Description: However, administration as a solid or semi-solid dosage form and/or with a high-fat meal may maximize bioavailability by increasing the residence time of BH4 in the acidic milieu of the stomach and upper gastrointestinal tract (GIT) where BH4 is chemically stable. […] At pH 3.1, which is within realm of the typical pH of the stomach in normal volunteers, the stability of BH4 at a concentration of 1 mg/mL is over 3 hours. The chemical stability of BH4 may further increase when the pH of the stomach drops below pH 3.1. Therefore prolonged stomach residence time provides intact drug to the stomach wall for absorption, whereas rapid emptying into the intestine degrades BH4 and is thus not available to be absorbed.
In general, the objective of this study was to evaluate the stability of BH4 in buffer solutions ranging in pH from pH 1 to 7 (See Table 15) and in the presence and absence of antioxidants and with or without inert gas in the reaction solutions (See Table 16).
The stability of BH4 is expected to be temperature-dependent. Therefore, the compound stability was evaluated at 2-8° C., 25° C., 30° C. and 37° C. to support the determination of predictive long-term shelf lives for the compound at different temperatures. Determination of the stability of the compound at the physiologic temperature of 37° C. provides data to support the estimation of the stability lifetime of a formulated oral dosage form in the absorptive regions of the GI tract.
Based on this approximation, pH 1.2 to pH 3 solutions were sampled weekly initially and sampling time corrections were made if necessary after the first 2 data points were collected.
Studies were conducted in pH 1-7 buffer solutions and at 5° C., 25° C., 30° C. and 37° C.

[4] = physchem; assay type: physicochemical
Source text: Although there is ample literature describing increased bioavailability in fed conditions, this food effect is typically seen with lipophilic (i.e., lipid soluble) water-insoluble drugs and not usually with high water soluble active substance such as BH4. The usual explanation for increases in bioavailability under fed conditions for lipophilic compounds is that high fat meals help solubilize the drug since “like dissolves like” and this makes it available for absorption. Another possible explanation is that high fat meals stimulate the secretion of bile acids which are natural bio-surfactants that help solubilize and emulsify the fats we eat to aid their digestion. These bile acids are also thought to solubilize water-insoluble compounds thereby making them available for absorption. […] Therefore the enhancement of its bioavailability by high fat, high-energy meals is not consistent with such known mechanism.

[5] = pharmacokinetics of sapropterin after a single oral administration in cynomolgus monkeys; assay type: in vivo, female cynomolgus monkeys; details: monkey, 10 mg/kg oral
Description: A single dose of sapropterin (10 mg/kg) was administered orally to female cynomolgus monkeys (3/group) under fasting conditions.

[6] = relative bioavailability of dissolved vs intact tablets and effect of food in healthy subjects; assay type: in vivo, human
Source text: The primary objectives of the study were: (1) to evaluate the relative bioavailability of tetrahydrobiopterin (BH4, sapropterin dihydrochloride) when administered after dissolution of tablet(s) in water or administered as intact tablet(s); (2) to compare the effect of food on the bioavailability of BH4 in healthy subjects. The secondary objective of the study was to assess the safety and tolerability of single oral doses of BH4 in healthy subjects.
This study was an open-label, randomized, three-treatment, six-sequence, three-period crossover study in which 30 subjects were to complete 3 single-dose dosing periods and were randomized to one of six sequence groups (Groups 1, 2, 3, 4, 5, and 6): […]
where all dosing groups received BH4 10 mg/kg orally as follows: a: administered after dissolution of tablet(s) in water given in fasting under fasting conditions b: administered as intact tablet(s) given in fasting under fasting conditions c: administered as intact tablet(s) given 30 minutes after beginning to ingest a high-calorie, high-fat meal in fed conditions Each subject received a single dose of 10 mg/kg of BH4 during each treatment period. A washout period of at least seven days separated each dose administration. A post-study assessment was performed 5-7 days after discharge of the third treatment period. Blood samples for Pharmacokinetic (PK) analysis were drawn at scheduled collection times during each study period: within 30 minutes prior to dose, and 0.5, 1.0, 1.5, 2.0, 2.5, 3.0, 3.5, 4.0, 5.0, 6.0, 8.0, 10.0, 12.0, 18.0, and 24.0 hours post-dose.
Blood (plasma) pharmacokinetic (PK) characteristics were assessed after each dose of study medication. All subjects remained seated in an upright position for 4 hours post-dose. The blood samples were drawn within 30 minutes prior to dose and at 0.5, 1.0, 1.5, 2.0, 2.5, 3.0, 3.5, 4.0, 5.0, 6.0, 8.0, 10.0, 12.0, 18.0, and 24.0 hours post dose. Samples were collected in appropriately labeled 6 mL K2-EDTA purple top Vacutainer® tubes. Blood samples were centrifuged at approximately 3000 rpm at 4° C. for 10 minutes. From the resulting plasma, exactly 1 mL was removed from each sample using a pipet, and placed into an aliquot tube containing 0.1% w/v dithioerythritol. The sample was capped and vortexed for approximately 10 seconds using a VWR Mini Vortexer at speed 6. After completion of these steps, the sample was flash frozen in an isopropyl/dry ice bath and placed in a −70° C. freezer pending analysis.
Pharmacokinetic (PK) analysis of plasma BH4 concentration-time data was performed using non-compartmental methods to obtain estimates of the following PK parameters: • Peak plasma concentration (Cmax) and time to peak concentration (Tmax), obtained directly from the data without interpolation; • λz, the apparent terminal elimination rate constant, determined by log-linear regression of the terminal plasma concentrations; • Area under the plasma concentration-time curve from time zero to the time of last measurable concentration [AUC(0-t)], calculated by the linear trapezoidal method; • The apparent elimination half-life (t½), calculated as 0.693/λz; • Area under the plasma concentration-time curve from time 0 to infinity [AUC(inf)] where AUC(inf)=AUC(0-t)+Ct/λz and Ct is the last measurable concentration. Estimation of Absorption Rate […]
Comparison of the pharmacokinetic parameters Cmax, AUC(0-t), and AUC(inf) for BH4 was conducted using an analysis of variance (ANOVA) model with sequence, subject within sequence, treatment, and period as the classification variables using the natural logarithms of the parameters as the dependent variables. The comparisons of interest were between the dissolved and intact tablet in the fasted state and the intact tablet in the fed and fasted states.

[7] = rat, radioactive markers in urine
[8] = water adsorption (hygroscopicity) of crystal forms; assay type: physicochemical; details: dihydrochloride

C[C@H](O)[C@H](O)[C@H]1CNc2nc(N)[nH]c(=O)c2N1 [BH4, 6R-(L-erythro)-5,6,7,8-tetrahydrobiopterin]
BH4 absorbed in the gut [1]: 8-11%
study exit assessments, ECG and physical examination evaluations ([2]; human, in vivo): no clinically significant findings
adverse events assessed as mild ([2]; of 9 AEs): 8 AEs
adverse events assessed as moderate in severity ([2]; of 9 AEs): 1 AEs
events judged possibly related to the study drug ([2]; of 9 AEs): 4 events
events judged unrelated to the study drug ([2]; of 9 AEs): five
subjects reporting adverse events ([2]; single 10 mg/kg oral doses): 5 subjects
total adverse events reported ([2]; single 10 mg/kg oral doses): 9 adverse events
serious adverse events (SAEs) ([2]; single 10 mg/kg oral doses, healthy subjects, 10 mg/kg): no serious adverse events; also recorded: no AEs considered serious
dependence of rate of degradation of BH4 [3]: concentration-dependent
effect of sparging on stability of BH4 [3]: substantially enhanced the stability
stability of BH4 at pH 3.1 ([3]; 1 mg/mL, pH 3.1): over 3 hours
Estimated t1/2 Based on t1/2 Obtained at pH 3 (Min) ([3]; pH 2): 177690.0 (123.4 days) Min
Estimated t1/2 Based on t1/2 Obtained at pH 3 (Min) ([3]; pH 3): 17769.0 (12.34 days) Min
half-life ([3]; pH 3): 12.3 days
half-life ([3]; pH 3.1): 12.3 days
Estimated t1/2 Based on t1/2 Obtained at pH 3 (Min) ([3]; pH 4): 1776.9 (1.23 days) Min
Estimated t1/2 Based on t1/2 Obtained at pH 3 (Min) ([3]; pH 5): 177.7 (0.12 days) Min
Estimated t1/2 Based on t1/2 Obtained at pH 3 (Min) ([3]; pH 6): 17.7 (0.01 days) Min
half-life ([3]; pH 6.8): ~0.0104 days
Estimated t1/2 Based on t1/2 Obtained at pH 3 (Min) ([3]; pH 7): 1.8 Min
solubility [4]: > 1000 mg/mL
ratio of reduced biopterin to total biopterins during the test period [5]: nearly constant
median and range for Tmax, dissolved vs intact tablets ([6]; 10 mg/kg oral, fasted): essentially the same
upper limits of 90% confidence intervals of intact-to-dissolved ratios ([6]; 10 mg/kg oral, fasted): greater than 125%
increase in the extent of absorption, intact tablet compared to dissolved tablet ([6]; 10 mg/kg oral, healthy subjects): ~20%
average increase in Cmax and AUC, intact tablet relative to dissolved tablets ([6]; fasted conditions): 20%
increase in Cmax and AUC after a high fat/high calorie meal ([6]; intact tablet): approximately 30%
median and range for Tmax, fed vs fasted conditions ([6]; intact tablet 10 mg/kg): essentially the same
upper limits of 90% confidence intervals of fed-to-fasted ratios ([6]; intact tablet 10 mg/kg): greater than 125%
increase in Cmax and AUC after a high fat/high calorie meal ([6]; tablet dissolved in water): ~80%
rate of GI absorption [7]: 8.8%

C[C@H](O)[C@H](O)[C@H]1CNc2nc(N)[nH]c(=O)c2N1.Cl.Cl [Polymorph A, (6R)-L-erythro-tetrahydrobiopterin dihydrochloride]
water content adsorbed (hygroscopicity) [8]: about 3 percent by weight

C[C@H](O)[C@H](O)[C@H]1CNc2nc(N)[nH]c(=O)c2N1.Cl.Cl [Polymorph F, (6R)-L-erythro-tetrahydrobiopterin dihydrochloride]
water content adsorbed (hygroscopicity) [8]: about 3 percent by weight

C[C@H](O)[C@H](O)[C@H]1CNc2nc(N)[nH]c(=O)c2N1.Cl.Cl [Polymorph K, (6R)-L-erythro-tetrahydrobiopterin dihydrochloride]
water content adsorbed (hygroscopicity) [8]: about 2.0 percent by weight

Reference: patent publication US7612073B2, “Methods of administering tetrahydrobiopterin, associated compositions, and methods of measuring” (Biomarin Pharmaceutical Inc., priority 2007, dated 2009)
